Experiments:
[1] = Phase III clinical study of an 8-hour advance in usual bedtime (jet lag disorder circadian challenge); type: in vivo, human
Description: In the course of the trial, volunteers are subjected to a circadian challenge of an 8-hour advance in their usual bedtime, consistent with the circadian challenge induced in travelers crossing eight time zones (e.g., Los Angeles to London or Washington, DC to Moscow) and typically causing jet lag disorder.
The pre-specified primary endpoint used for this purpose is the amount of sleep time in the first two thirds of the night. Secondary endpoints include measures of various sleep parameters-total sleep time (TST), latency to persistent sleep (LPS), and wake after sleep onset (WASO)-as well as next day alertness, measured using the Karolinska Sleepiness Scale (KSS) and Visual Analog Scale (VAS).

[2] = Two-phase transatlantic travel study (jet lag, five or eight time zones); type: in vivo, human; conditions: for Objective TST2/3 Night 3, change from baseline: 20 mg for three consecutive nights prior to bedtime; for Objective TST2/3 Night 3, change from baseline / Objective TST2/3 All 3 nights, change from baseline: treated travel vs baseline observational travel
Description: A two-phase transatlantic travel study of 25 subjects (tasimelteon n=13, placebo n=12) comprises a first phase that is an observational travel study to collect baseline data, and a second phase that is a treatment phase. Participants in the study travel either five or eight time zones from Washington, DC to London (five time zones) or San Francisco or Los Angeles to London (eight time zones). Participants stay at their destination for three nights and four days and during randomization receive 20 mg of tasimelteon for three consecutive nights prior to their bedtime. Efficacy is monitored by PSG as well as sleep and wake questionnaire scales.
The primary endpoint of the study is TST for the first 2/3 of the night(s) most likely to be disrupted. These are, from Table 2, Night 3, followed by Night 1 and Night 2.
Measures of global function, including Patient Global Impression of Severity (PGI-S) and KSS also favor tasimeltcon.

[3] = 20 mg dose, 8-hour bedtime advance, difference from placebo
[4] = 20 mg dose, 8-hour bedtime advance, treatment group value
[5] = 8-hour phase advance, difference from placebo
[6] = 8-hour phase advance, treatment group value
[7] = 20 mg for three consecutive nights, Post-Sleep Questionnaire
[8] = 20 mg for three consecutive nights, difference from placebo
[9] = Post-Sleep Questionnaire, difference from placebo

Question: Which “PSG TST2/3 (sleep time in first two thirds of the night, primary endpoint)” value ([1]; 20 mg dose, 8-hour bedtime advance, healthy volunteers, treatment group value) does the source give for `CCC(=O)NC[C@@H]1C[C@H]1c1cccc2c1CCO2` [Hetlioz ®, tasimelteon] here?
Answer: The value was 216.4 min.

Question: What about the “KSS (1-9) average, next day alertness” value ([1]; 20 mg dose, 8-hour bedtime advance, Karolinska Sleepiness Scale, treatment group value) of the same compound?
Answer: The value was 4.0.

Question: What about the “VAS (0-100) average, next day alertness” value ([1]; 20 mg dose, 8-hour bedtime advance, Visual Analog Scale, treatment group value) of the same compound?
Answer: Its value is 60.8.

Question: What about the “KSS (1-9) average, Diff vs placebo” value [1, 3] of the same compound?
Answer: The value was −0.53.

Question: What about the “PSG LPS, Diff vs placebo” value [1, 3] of the same compound?
Answer: The value was -15.08 min.

Question: What about the “PSG TST2/3, Diff vs placebo” value [1, 3] of the same compound?
Answer: The value was 60.31 min.

Question: What about the “PSG TSTfull, Diff vs placebo” value [1, 3] of the same compound?
Answer: The value was 85.46 min.

Question: What about the “PSG WASO, Diff vs placebo” value [1, 3] of the same compound?
Answer: The value was -74.58 min.

Question: And the “VAS (0-100) average, Diff vs placebo” value [1, 3]?
Answer: Its value is 6.59.

Question: And the “PSG TSTfull, Diff vs placebo” value ([1]; 20 mg dose, 8-hour bedtime advance, difference from placebo, listed as tasimelteon)?
Answer: Its value is 85 min.

Question: What about the “PSG LPS (latency to persistent sleep)” value [1, 4] of the same compound?
Answer: Its value is 21.8 min.

Question: And the “PSG TSTfull (total sleep time)” value [1, 4]?
Answer: The value was 315.8 min.

Question: What about the “PSG WASO (wake after sleep onset)” value [1, 4] of the same compound?
Answer: Its value is 144.6 min.

Question: What about the “PSG REMTotal, Difference vs placebo” value [1, 5] of the same compound?
Answer: Its value is 13.7 min.

Question: And the “REMAccumulate, Difference vs placebo” value [1, 5]?
Answer: The value was -53.3 min.

Question: What about the “REMAchieved, Difference vs placebo” value [1, 5] of the same compound?
Answer: Its value is 24.5%.

Question: What about the “PSG REMTotal (total REM sleep period)” value [1, 6] of the same compound?
Answer: Its value is 48.9 min.

Question: What about the “REMAccumulate (time required to accumulate 30 minutes of REM sleep)” value [1, 6] of the same compound?
Answer: Its value is 318.7 min.

Question: What about the REMAchieved [1, 6] of the same compound?
Answer: Its REMAchieved is 76.1%.

Question: And the “Objective TST2/3 Night 3, change from baseline” value ([2]; listed as HETLIOZ ®)?
Answer: Its value is 76.2 min.

Question: And the “Objective TST2/3 Night 3, change from baseline” value ([2]; listed as Tasimelteon)?
Answer: The value was 76 min.

Question: And the “Global measures KSS Day 4, change from baseline” value ([2]; 20 mg for three consecutive nights, Karolinska Sleepiness Scale)?
Answer: The value was −1.69.

Question: And the “Global measures PGI-S Day 3, change from baseline” value ([2]; 20 mg for three consecutive nights, Patient Global Impression of Severity)?
Answer: Its value is −0.71.

Question: What about the “Subjective Sleep Latency Night 3, change from baseline” value [2, 7] of the same compound?
Answer: The value was −20.6.

Question: And the “Subjective Sleep Quality Night 3, change from baseline” value [2, 7]?
Answer: Its value is 1.31.

Question: What about the “Subjective TSTFull All 3 Nights, change from baseline” value [2, 7] of the same compound?
Answer: The value was 240.0.

Question: And the “Subjective TSTFull Night 3, change from baseline” value [2, 7]?
Answer: Its value is 111.9.

Question: What about the “Subjective WASO Night 3, change from baseline” value [2, 7] of the same compound?
Answer: Its value is −81.1.

Question: What about the “Objective TST2/3 All 3 nights, change from baseline, Difference vs placebo” value [2, 8] of the same compound?
Answer: Its value is 90.6 min.

Question: What about the “Objective TST2/3 Night 3, change from baseline, Difference vs placebo” value [2, 8] of the same compound?
Answer: Its value is 34.8 min.

Question: And the “Objective TST2/3 All 3 nights, change from baseline” value ([2]; 20 mg for three consecutive nights, listed as HETLIOZ ®)?
Answer: The value was 131.4 min.

Question: What about the “Objective TST2/3 All 3 nights, change from baseline” value ([2]; 20 mg for three consecutive nights, listed as Tasimelteon) of the same compound?
Answer: Its value is 131 min.

Question: And the “Global measures KSS Day 4, change from baseline, Difference vs placebo” value ([2]; Karolinska Sleepiness Scale, difference from placebo)?
Answer: The value was −1.00.

Question: What about the “Global measures PGI-S Day 3, change from baseline, Difference vs placebo” value ([2]; Patient Global Impression of Severity, difference from placebo) of the same compound?
Answer: Its value is −0.63.

Question: And the “Subjective Sleep Latency Night 3, change from baseline, Difference vs placebo” value [2, 9]?
Answer: The value was −26.5.

Question: What about the “Subjective Sleep Quality Night 3, change from baseline, Difference vs placebo” value [2, 9] of the same compound?
Answer: The value was 0.95.

Question: And the “Subjective TSTFull All 3 Nights, change from baseline, Difference vs placebo” value [2, 9]?
Answer: The value was 174.9.

Question: And the “Subjective TSTFull Night 3, change from baseline, Difference vs placebo” value [2, 9]?
Answer: The value was 78.5.

Question: And the “Subjective WASO Night 3, change from baseline, Difference vs placebo” value [2, 9]?
Answer: Its value is −56.4.

From patent US20240226055A1, “TREATMENT OF DISORDERS WITH TASIMELTEON” (Vanda Pharmaceuticals Inc., priority 2018, published 2024)
